Measurements as given in US20230346961A1, “GLP-1 AND GIP RECEPTOR CO-AGONISTS” (Novo Nordisk A/S, priority 2020, published 2023).
Starred links: 1 amine or outer side, 2 acyl side, 3 side chain; linkers in the order of their positions; H or OH if unused. Non-standard residues stand in square brackets, D forms with d. Residues, ends and D or L forms follow the SMILES beside them. Groups on a side chain read outwards from the residue. *: point of attachment. C18 diacid = O=C(O)CCCCCCCCCCCCCCCCC(=O)*; γGlu = O=C(O)[C@H](CCC(=O)[*:2])N[*:1]; εLys = N[C@@H](CCCCN[*:1])C(=O)[*:2]; AEEA = NCCOCCOCC(=O)O; Aib = CC(C)(N)C(=O)O

Tests used:
human GLP-1 receptor = human GLP-1 receptor (Homo sapiens, UniProt P43220); assay: cell-based; conditions: hGLP-1R
mouse GLP-1 receptor = biological target: T1, mouse GLP-1 receptor (Mus musculus, UniProt O35659)
T1 sequence (O35659 22-463): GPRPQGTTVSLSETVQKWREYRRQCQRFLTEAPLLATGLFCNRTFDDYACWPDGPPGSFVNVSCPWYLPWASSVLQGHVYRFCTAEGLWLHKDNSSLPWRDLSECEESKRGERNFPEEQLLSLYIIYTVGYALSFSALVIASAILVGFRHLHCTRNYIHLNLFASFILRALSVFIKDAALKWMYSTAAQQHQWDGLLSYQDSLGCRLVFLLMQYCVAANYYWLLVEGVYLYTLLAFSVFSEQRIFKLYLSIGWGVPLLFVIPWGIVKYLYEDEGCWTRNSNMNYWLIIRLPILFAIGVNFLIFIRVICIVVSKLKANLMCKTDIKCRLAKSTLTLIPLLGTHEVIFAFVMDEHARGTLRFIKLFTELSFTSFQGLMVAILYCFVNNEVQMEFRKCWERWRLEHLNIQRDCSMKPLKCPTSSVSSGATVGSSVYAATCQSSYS
Protocol: (§1) The in vitro functional potency is the measure of target receptor activation in a whole cell assay.
(§2) In vitro functional potency was determined by measuring the response of the target receptor in a reporter gene assay in individual cell lines. […] When the respective receptor is activated, it results in the production of cAMP, which in turn results in expression of the luciferase protein. When assay incubation is completed, luciferase substrate (luciferin) is added resulting in the enzymatic conversion of luciferin to oxyluciferin and producing bioluminescence. The luminescence is measured as the readout for the assay.
(§3) The cells lines used in these assays were BHK cells with BHKTS13 as a parent cell line. The cell lines were derived from a clone containing the CRE luciferase element and were established by further transfection with the respective receptor to obtain the relevant cell line.
(§4) The cells were cultured at 37° C. with 5% CO2 in Cell Culture Medium. They were aliquoted and stored in liquid nitrogen. The cells were kept in continuous culture and were seeded out the day before each assay.
(§5) GLP-1R and GcgR Cell Culture Medium consisted of DMEM medium with 10% FBS, 500 μg/mL G418, and 300 μg/mL hygromycin. GIPR Cell Culture Medium consisted of DMEM medium with 10% FBS, 400 μg/mL G418, and 300 μg/mL hygromycin. Assay Buffer consisted of DMEM w/o phenol red, 10 mM Hepes, 1×Glutamax, 1% ovalbumin, and 0.1% Pluronic F-68 with the addition of HSA at twice the final assay concentration.
(§6) • 1) Cells were plated at 5000 cells/well and incubated overnight in the assay plate. • 2) Cells were washed once in DPBS. • 3) Stocks of the test compounds and reference compounds in concentrations ranging from 100-300 μM were diluted 1:150 in Assay Buffer. Compounds were then diluted 1:10 in column 1 of a 96 deep well dilution plate and then carried across the row creating a 3.5 fold, 12 point dilution curve. • 4) Assay Buffer (50 μl aliquot) with or without HSA was added to each well in the assay plate. • 5) A 50 μl aliquot of compound or blank was transferred from the dilution plate to the assay plate containing the Assay Buffer with or without HSA. • 6) The assay plate was incubated for 3 h in a 5% CO2 incubator at 37° C. 7) The cells were washed once with DPBS. • 8) A 100 μl aliquot of DPBS was added to each well of the assay plate. • 9) A 100 μl aliquot of steadylite plus reagent (light sensitive) was added to each well of the assay plate. • 10) Each assay plate was covered with aluminum foil to protect it from light and shaken at 250 RPM for 30 min at room temperature. • 11) Each assay plate was read in a microtiter plate reader.
(§7) The data from the microtiter plate reader was first regressed in an Excel in order to calculate the x-axis, log scale concentrations based on the individual test compound's stock concentration and the dilutions of the assay. […] The software performs a non-linear regression (log(agonist) vs response). A minimum of two replicates was measured for each sample. The reported values are averages of the replicates.

mouse GIP receptor = biological target: T2, mouse GIP receptor (Mus musculus, UniProt Q0P543); assay: cell-based
T2 sequence (Q0P543 19-460): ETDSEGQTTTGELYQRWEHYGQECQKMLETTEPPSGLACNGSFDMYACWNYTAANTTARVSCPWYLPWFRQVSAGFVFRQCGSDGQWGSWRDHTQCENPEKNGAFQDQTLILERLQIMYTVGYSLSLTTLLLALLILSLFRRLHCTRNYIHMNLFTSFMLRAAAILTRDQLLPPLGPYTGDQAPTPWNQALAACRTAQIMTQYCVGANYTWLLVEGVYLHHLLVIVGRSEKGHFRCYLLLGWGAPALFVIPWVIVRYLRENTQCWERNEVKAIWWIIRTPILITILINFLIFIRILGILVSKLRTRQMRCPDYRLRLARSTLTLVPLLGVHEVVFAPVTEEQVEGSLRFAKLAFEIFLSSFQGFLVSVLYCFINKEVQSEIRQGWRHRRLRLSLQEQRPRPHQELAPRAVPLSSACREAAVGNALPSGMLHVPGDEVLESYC
Protocol: as §1, §2, §3, §4, §5, §6, §7

Chain of human GLP-1 receptor (P43220 24-463): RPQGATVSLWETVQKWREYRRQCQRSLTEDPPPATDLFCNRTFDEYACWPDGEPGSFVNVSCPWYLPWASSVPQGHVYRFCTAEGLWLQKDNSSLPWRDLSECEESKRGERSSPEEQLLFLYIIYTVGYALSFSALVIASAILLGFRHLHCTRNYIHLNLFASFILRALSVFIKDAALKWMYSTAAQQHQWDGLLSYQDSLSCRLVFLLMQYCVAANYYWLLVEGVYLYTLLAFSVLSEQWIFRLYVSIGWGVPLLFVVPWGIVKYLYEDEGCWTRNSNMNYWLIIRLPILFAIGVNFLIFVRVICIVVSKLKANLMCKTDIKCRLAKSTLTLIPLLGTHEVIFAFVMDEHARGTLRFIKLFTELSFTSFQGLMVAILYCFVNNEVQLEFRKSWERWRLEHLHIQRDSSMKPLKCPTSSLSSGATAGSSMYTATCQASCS

| Compound | EC50 (human GLP-1 receptor; CRE Luc 0% HSA EC50, 0% HSA) | EC50 (human GLP-1 receptor; CRE Luc 1% HSA EC50, 1% HSA) | EC50 (mouse GLP-1 receptor) | EC50 (mouse GIP receptor) |
| --- | --- | --- | --- | --- |
| CC[C@H](C)[C@H](NC(=O)[C@H](CO)NC(=O)[C@H](Cc1ccc(O)cc1)NC(=O)[C@H](CC(=O)O)NC(=O)[C@H](CO)NC(=O)[C@@H](NC(=O)[C@H](Cc1ccccc1)NC(=O)[C@@H](NC(=O)CNC(=O)[C@H](CCC(=O)O)NC(=O)C(C)(C)NC(=O)[C@@H](N)Cc1ccc(O)cc1)[C@@H](C)O)[C@@H](C)O)C(=O)N[C@@H](Cc1ccc(O)cc1)C(=O)N[C@@H](CC(C)C)C(=O)N[C@@H](CC(=O)O)C(=O)N[C@@H](CCCCN)C(=O)N[C@@H](CCC(N)=O)C(=O)N[C@@H](C)C(=O)N[C@@H](C)C(=O)NC(C)(C)C(=O)N[C@@H](CCC(=O)O)C(=O)N[C@@H](Cc1ccccc1)C(=O)N[C@H](C(=O)N[C@@H](CC(N)=O)C(=O)N[C@@H](Cc1c[nH]c2ccccc12)C(=O)N[C@@H](CC(C)C)C(=O)N[C@@H](CC(C)C)C(=O)N[C@@H](C)C(=O)NCC(=O)NCC(=O)N1CCC[C@H]1C(=O)N[C@@H](CO)C(=O)N[C@@H](CO)C(=O)NCC(=O)N[C@@H](C)C(=O)N1CCC[C@H]1C(=O)N1CCC[C@H]1C(=O)N1CCC[C@H]1C(=O)N[C@@H](CO)C(=O)N[C@@H](CCCCNC(=O)CCCCCCCCCCCCCCCCC(=O)O)C(N)=O)C(C)C [Compound 2] | 0.0675 nM | 0.439 nM |  |  |
| CC[C@H](C)[C@H](NC(=O)[C@H](CO)NC(=O)[C@H](Cc1ccc(O)cc1)NC(=O)[C@H](CC(=O)O)NC(=O)[C@H](CO)NC(=O)[C@@H](NC(=O)[C@H](Cc1ccccc1)NC(=O)[C@@H](NC(=O)CNC(=O)[C@H](CCC(=O)O)NC(=O)C(C)(C)NC(=O)[C@@H](N)Cc1ccc(O)cc1)[C@@H](C)O)[C@@H](C)O)C(=O)N[C@@H](Cc1ccc(O)cc1)C(=O)N[C@@H](CC(C)C)C(=O)N[C@@H](CC(=O)O)C(=O)N[C@@H](CCCCN)C(=O)N[C@@H](CCC(N)=O)C(=O)N[C@@H](C)C(=O)N[C@@H](C)C(=O)NC(C)(C)C(=O)N[C@@H](CCC(=O)O)C(=O)N[C@@H](Cc1ccccc1)C(=O)N[C@H](C(=O)N[C@@H](CC(N)=O)C(=O)N[C@@H](Cc1c[nH]c2ccccc12)C(=O)N[C@@H](CC(C)C)C(=O)N[C@@H](CC(C)C)C(=O)N[C@@H](C)C(=O)NCC(=O)NCC(=O)N1CCC[C@H]1C(=O)N[C@@H](CO)C(=O)N[C@@H](CO)C(=O)NCC(=O)N[C@@H](C)C(=O)N1CCC[C@H]1C(=O)N1CCC[C@H]1C(=O)N1CCC[C@H]1C(=O)N[C@@H](CO)C(=O)N[C@@H](CCCCNC(=O)COCCOCCNC(=O)COCCOCCNC(=O)CC[C@H](NC(=O)CCCCCCCCCCCCCCCCC(=O)O)C(=O)O)C(N)=O)C(C)C [Compound 3] | 0.0134 nM | 0.606 nM |  |  |
| CC[C@H](C)[C@H](NC(=O)[C@H](CO)NC(=O)[C@H](Cc1ccc(O)cc1)NC(=O)[C@H](CC(=O)O)NC(=O)[C@H](CO)NC(=O)[C@@H](NC(=O)[C@H](Cc1ccccc1)NC(=O)[C@@H](NC(=O)CNC(=O)[C@H](CCC(=O)O)NC(=O)C(C)(C)NC(=O)[C@@H](N)Cc1ccc(O)cc1)[C@@H](C)O)[C@@H](C)O)C(=O)N[C@@H](Cc1ccc(O)cc1)C(=O)N[C@@H](CC(C)C)C(=O)N[C@@H](CC(=O)O)C(=O)N[C@@H](CCCCN)C(=O)N[C@@H](CCCCNC(=O)COCCOCCNC(=O)COCCOCCNC(=O)CC[C@H](NC(=O)CCCCCCCCCCCCCCCCC(=O)O)C(=O)O)C(=O)N[C@@H](C)C(=O)N[C@@H](C)C(=O)NC(C)(C)C(=O)N[C@@H](CCC(=O)O)C(=O)N[C@@H](Cc1ccccc1)C(=O)N[C@H](C(=O)N[C@@H](CC(N)=O)C(=O)N[C@@H](Cc1c[nH]c2ccccc12)C(=O)N[C@@H](CC(C)C)C(=O)N[C@@H](CC(C)C)C(=O)N[C@@H](C)C(=O)NCC(=O)NCC(=O)N1CCC[C@H]1C(=O)N[C@@H](CO)C(=O)N[C@@H](CO)C(=O)NCC(=O)N[C@@H](C)C(=O)N1CCC[C@H]1C(=O)N1CCC[C@H]1C(=O)N1CCC[C@H]1C(=O)N[C@@H](CO)C(N)=O)C(C)C [Compound 4] (H-Y[Aib]EGTFTSDYSIYLDKK([AEEA-AEEA-γGlu-C18 diacid])AA[Aib]EFVNWLLAGGPSSGAPPPS-NH2; N-terminus assumed) | 0.0106 nM | 0.232 nM | 0.0039 nM | 1.55 nM |
| CC[C@H](C)[C@H](NC(=O)[C@H](CO)NC(=O)[C@H](Cc1ccc(O)cc1)NC(=O)[C@H](CC(=O)O)NC(=O)[C@H](CO)NC(=O)[C@@H](NC(=O)[C@H](Cc1ccccc1)NC(=O)[C@@H](NC(=O)CNC(=O)[C@H](CCC(=O)O)NC(=O)C(C)(C)NC(=O)[C@@H](N)Cc1ccc(O)cc1)[C@@H](C)O)[C@@H](C)O)C(=O)N[C@@H](Cc1ccc(O)cc1)C(=O)N[C@@H](CC(C)C)C(=O)N[C@@H](CC(=O)O)C(=O)N[C@@H](CCCCN)C(=O)N[C@@H](CCC(N)=O)C(=O)N[C@@H](C)C(=O)N[C@@H](C)C(=O)NC(C)(C)C(=O)N[C@@H](CCCCNC(=O)COCCOCCNC(=O)COCCOCCNC(=O)CC[C@H](NC(=O)CCCCCCCCCCCCCCCCC(=O)O)C(=O)O)C(=O)N[C@@H](Cc1ccccc1)C(=O)N[C@H](C(=O)N[C@@H](CC(N)=O)C(=O)N[C@@H](Cc1c[nH]c2ccccc12)C(=O)N[C@@H](CC(C)C)C(=O)N[C@@H](CC(C)C)C(=O)N[C@@H](C)C(=O)NCC(=O)NCC(=O)N1CCC[C@H]1C(=O)N[C@@H](CO)C(=O)N[C@@H](CO)C(=O)NCC(=O)N[C@@H](C)C(=O)N1CCC[C@H]1C(=O)N1CCC[C@H]1C(=O)N1CCC[C@H]1C(=O)N[C@@H](CO)C(N)=O)C(C)C [Compound 5] (H-Y[Aib]EGTFTSDYSIYLDKQAA[Aib]K([AEEA-AEEA-γGlu-C18 diacid])FVNWLLAGGPSSGAPPPS-NH2; N-terminus assumed) | 0.0092 nM | 0.161 nM | 0.0025 nM | 0.523 nM |
| CC[C@H](C)[C@H](NC(=O)[C@H](CO)NC(=O)[C@H](Cc1ccc(O)cc1)NC(=O)[C@H](CC(=O)O)NC(=O)[C@H](CO)NC(=O)[C@@H](NC(=O)[C@H](Cc1ccccc1)NC(=O)[C@@H](NC(=O)CNC(=O)[C@H](CCC(=O)O)NC(=O)C(C)(C)NC(=O)[C@@H](N)Cc1ccc(O)cc1)[C@@H](C)O)[C@@H](C)O)C(=O)N[C@@H](Cc1ccc(O)cc1)C(=O)N[C@@H](CC(C)C)C(=O)N[C@@H](CC(=O)O)C(=O)N[C@@H](CCCCN)C(=O)N[C@@H](CCC(N)=O)C(=O)N[C@@H](C)C(=O)N[C@@H](C)C(=O)NC(C)(C)C(=O)N[C@@H](CCCCNC(=O)CC[C@H](NC(=O)CC[C@H](NC(=O)CC[C@H](NC(=O)CCCCCCCCCCCCCCCCC(=O)O)C(=O)O)C(=O)O)C(=O)O)C(=O)N[C@@H](Cc1ccccc1)C(=O)N[C@H](C(=O)N[C@@H](CC(N)=O)C(=O)N[C@@H](Cc1c[nH]c2ccccc12)C(=O)N[C@@H](CC(C)C)C(=O)N[C@@H](CC(C)C)C(=O)N[C@@H](C)C(=O)NCC(=O)NCC(=O)N1CCC[C@H]1C(=O)N[C@@H](CO)C(=O)N[C@@H](CO)C(=O)NCC(=O)N[C@@H](C)C(=O)N1CCC[C@H]1C(=O)N1CCC[C@H]1C(=O)N1CCC[C@H]1C(=O)N[C@@H](CO)C(N)=O)C(C)C [Compound 6] (H-Y[Aib]EGTFTSDYSIYLDKQAA[Aib]K([γGlu-γGlu-γGlu-C18 diacid])FVNWLLAGGPSSGAPPPS-NH2; N-terminus assumed) | 0.0059 nM |  | 0.0023 nM |  |
| CC[C@H](C)[C@H](NC(=O)[C@H](CO)NC(=O)[C@H](Cc1ccc(O)cc1)NC(=O)[C@H](CC(=O)O)NC(=O)[C@H](CO)NC(=O)[C@@H](NC(=O)[C@H](Cc1ccccc1)NC(=O)[C@@H](NC(=O)CNC(=O)[C@H](CCC(=O)O)NC(=O)[C@H](C)NC(=O)[C@@H](Cc1ccc(O)cc1)NC(C)=O)[C@@H](C)O)[C@@H](C)O)C(=O)N[C@@H](Cc1ccc(O)cc1)C(=O)N[C@@H](CC(C)C)C(=O)N[C@@H](CC(=O)O)C(=O)N[C@@H](CCCCN)C(=O)N[C@@H](CCC(N)=O)C(=O)N[C@@H](C)C(=O)N[C@@H](C)C(=O)NC(C)(C)C(=O)N[C@@H](CCCCNC(=O)[C@@H](N)CCCCNC(=O)[C@@H](N)CCCCNC(=O)CC[C@H](NC(=O)CCCCCCCCCCCCCCCCC(=O)O)C(=O)O)C(=O)N[C@@H](Cc1ccccc1)C(=O)N[C@H](C(=O)N[C@@H](CC(N)=O)C(=O)N[C@@H](Cc1c[nH]c2ccccc12)C(=O)N[C@@H](CC(C)C)C(=O)N[C@@H](CC(C)C)C(=O)N[C@@H](C)C(=O)NCC(=O)NCC(=O)N1CCC[C@H]1C(=O)N[C@@H](CO)C(=O)N[C@@H](CO)C(=O)NCC(=O)N[C@@H](C)C(=O)N1CCC[C@H]1C(=O)N1CCC[C@H]1C(=O)N1CCC[C@H]1C(=O)N[C@@H](CO)C(N)=O)C(C)C [Compound 8] (Ac-[dY]AEGTFTSDYSIYLDKQAA[Aib]K([εLys-εLys-γGlu-C18 diacid])FVNWLLAGGPSSGAPPPS-NH2) |  |  | 0.017 nM |  |
